Data published in US20080021026A1, “BENZOTHIOPHENE INHIBITORS OF RHO KINASE” (priority 2006, published 2008).

Biological target: T1, recombinant N-terminal GST-tagged human Rho kinase 2 (ROCK2, amino acids 1-552) (Homo sapiens, UniProt O75116)
T1 construct: ROCK2, amino acids 1-552; purchased Invitrogen Inc. PV3759
Assay: In vitro Rho kinase assay (luciferase-based ATP consumption), ROCK2
Format: biochemical
Conditions: recombinant GST-tagged human ROCK2, luciferase-based ATP consumption; read-out: ROCK2 IC50
Procedure, shortened: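 GST-ROCK2 (aa 1-552, 0.82 μg/ml) with 100 μg/ml S6 peptide and 3 µM ATP in Tris pH 7.5 buffer with MgCl2/CaCl2/EGTA/BSA, compound added just after reaction start, 2 h at 30 °C. Remaining ATP read by luciferase luminescence. Efficacy expressed as percentage of H-1152P positive control.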

T1 sequence (O75116 1-552): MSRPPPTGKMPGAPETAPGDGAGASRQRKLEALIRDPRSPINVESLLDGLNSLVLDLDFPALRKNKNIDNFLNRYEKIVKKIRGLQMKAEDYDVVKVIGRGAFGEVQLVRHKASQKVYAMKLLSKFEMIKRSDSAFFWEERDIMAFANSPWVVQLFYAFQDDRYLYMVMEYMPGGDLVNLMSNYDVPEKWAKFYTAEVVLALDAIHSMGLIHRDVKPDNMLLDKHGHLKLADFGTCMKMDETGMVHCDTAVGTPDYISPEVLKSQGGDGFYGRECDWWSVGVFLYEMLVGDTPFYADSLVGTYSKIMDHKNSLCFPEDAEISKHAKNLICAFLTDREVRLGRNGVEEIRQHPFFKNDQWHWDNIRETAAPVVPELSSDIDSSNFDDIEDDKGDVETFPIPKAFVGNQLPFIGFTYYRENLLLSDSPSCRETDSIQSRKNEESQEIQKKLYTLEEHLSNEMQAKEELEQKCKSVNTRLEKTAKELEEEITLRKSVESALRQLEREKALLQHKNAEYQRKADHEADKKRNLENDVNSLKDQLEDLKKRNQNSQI

IC50 [µM]	SMILES
> 5	Cc1c(-c2ccnc(N)n2)sc2ccc(C(=O)N3CCN(c4ccccn4)CC3)cc12 [Example 514, Cc1c(sc2ccc(cc12)C(═O)N3CCN(CC3)c4ccccn4)-c5ccnc(N)n5]
> 5	CCCCN(Cc1ccccc1)C(=O)c1ccc2sc(-c3ccnc(N)n3)c(C)c2c1 [Example 515, CCCCN(Cc1ccccc1)C(═O)c2ccc3sc(c(C)c3c2)-c4ccnc(N)n4]
< 5	Cc1c(-c2ccnc(N)n2)sc2ccc(C(=O)N(CCO)[C@H](C)c3ccccc3)cc12 [Example 516, C[C@@H](N(CCO)C(═O)c1ccc2sc(c(C)c2c1)-c3ccnc(N)n3)c4ccccc4]
< 5	Cc1c(-c2ccnc(N)n2)sc2ccc(C(=O)N(CCCO)Cc3ccccn3)cc12 [Example 517, Cc1c(sc2ccc(cc12)C(═O)N(CCCO)Cc3ccccn3)-c4ccnc(N)n4]
> 5	Cc1c(-c2ccnc(N)n2)sc2ccc(C(=O)N3CCN(C4CCCCC4)CC3)cc12 [Example 519, Cc1c(sc2ccc(cc12)C(═O)N3CCN(CC3)C4CCCCC4)-c5ccnc(N)n5]
> 5	Cc1c(-c2ccnc(N)n2)sc2ccc(C(=O)N3CCC(Cc4ccccc4)CC3)cc12 [Example 520, Cc1c(sc2ccc(cc12)C(═O)N3CCC(CC3)Cc4ccccc4)-c5ccnc(N)n5]
> 5	Cc1c(-c2ccnc(N)n2)sc2ccc(C(=O)N3CCN(Cc4ccccc4)CC3)cc12 [Example 521, Cc1c(sc2ccc(cc12)C(═O)N3CCN(CC3)Cc4ccccc4)-c5ccnc(N)n5]
< 5	Cc1c(-c2ccnc(N)n2)sc2ccc(C(=O)N3CCCN(Cc4ccccc4)CC3)cc12 [Example 522, Cc1c(sc2ccc(cc12)C(═O)N3CCCN(CC3)Cc4ccccc4)-c5ccnc(N)n5]
< 5	Cc1c(-c2ccnc(N)n2)sc2ccc(C(=O)N3CCN(c4ccc(O)cc4)CC3)cc12 [Example 523, Cc1c(sc2ccc(cc12)C(═O)N3CCN(CC3)c4ccc(O)cc4)-c5ccnc(N)n5]
< 5	Cc1c(-c2ccnc(N)n2)sc2ccc(C(=O)N(CCN(C)C)Cc3ccccc3)cc12 [Example 524, CN(C)CCN(Cc1ccccc1)C(═O)c2ccc3sc(c(C)c3c2)-c4ccnc(N)n4]
> 5	Cc1c(-c2ccnc(N)n2)sc2ccc(C(=O)N3CCN(c4ccccc4F)CC3)cc12 [Example 525, Cc1c(sc2ccc(cc12)C(═O)N3CCN(CC3)c4ccccc4F)-c5ccnc(N)n5]
< 5	Cc1c(-c2ccnc(N)n2)sc2ccc(C(=O)N3CCN(c4ccc(F)cc4)CC3)cc12 [Example 526, Cc1c(sc2ccc(cc12)C(═O)N3CCN(CC3)c4ccc(F)cc4)-c5ccnc(N)n5]
> 5	Cc1c(-c2ccnc(N)n2)sc2ccc(C(=O)N3CCN(CC4CCCCC4)CC3)cc12 [Example 527, Cc1c(sc2ccc(cc12)C(═O)N3CCN(CC3)CC4CCCCC4)-c5ccnc(N)n5]
< 5	Cc1c(-c2ccnc(N)n2)sc2ccc(C(=O)N(C)C[C@H](O)c3ccc(O)c(O)c3)cc12 [Example 528, CN(C[C@H](O)c1ccc(O)c(O)c1)C(═O)c2ccc3sc(c(C)c3c2)-c4ccnc(N)n4]
< 5	CCOC(=O)CC1C(=O)NCCN1C(=O)c1ccc2sc(-c3ccnc(N)n3)c(C)c2c1 (stereo not shown) [Example 529, CCOC(═O)CC1N(CCNC1═O)C(═O)c2ccc3sc(c(C)c3c2)-c4ccnc(N)n4]
> 5	Cc1c(-c2ccnc(N)n2)sc2ccc(C(=O)N3CCN(C(=O)OC(C)(C)C)CC3)cc12 [Example 530, Cc1c(sc2ccc(cc12)C(═O)N3CCN(CC3)C(═O)OC(C)(C)C)-c4ccnc(N)n4]
< 5	Cc1c(-c2ccnc(N)n2)sc2ccc(C(=O)N3CCC(NC(=O)OC(C)(C)C)C3)cc12 (stereo not shown) [Example 531, Cc1c(sc2ccc(cc12)C(═O)N3CCC(C3)NC(═O)OC(C)(C)C)-c4ccnc(N)n4]
> 5	Cc1c(-c2ccnc(N)n2)sc2ccc(C(=O)N3CCN(c4ccccc4C#N)CC3)cc12 [Example 532, Cc1c(sc2ccc(cc12)C(═O)N3CCN(CC3)c4ccccc4C#N)-c5ccnc(N)n5]

SMILES	IC50 [µM]
Cc1c(-c2ccnc(N)n2)sc2ccc(C(=O)N(C)CC(O)c3ccc(O)cc3)cc12 (stereo not shown) [Example 518, CN(CC(O)c1ccc(O)cc1)C(═O)c2ccc3sc(c(C)c3c2)-c4ccnc(N)n4]	< 5
